Results published in patent US20170224749A1, “VAGINAL COMPOSITION FOR THE TREATMENT OF UROGENITAL INFECTIONS” (HPRD - HEALTH PRODUCTS RESEARCH AND DEVELOPMENT LDA, priority 2014, published 2017).

How the values were obtained:
[1] = system: G. vaginalis G19; test: anti-Gardnerella activity of film dispersions, micromethod (CSLI M45); type: cell-based, Gardnerella vaginalis; design: key: −: absence of bacterial growth; +: presence; details: lactic acid used for the preparation of formulations (control)
Protocol: (§1) In an embodiment, the antibacterial activity of chitosan films was tested against two Gardnerella vaginalis clinical strains, this being the pathogen most frequently associated with vaginal bacteriosis. […] The antibacterial activity was tested according to the CSLI M45 standard. Controls were performed with VFS and the lactic acid used for the preparation of formulations, as well as growth controls of strains and sterility of the culture medium used. All tests were performed in duplicate. Plates were observed concerning the presence or absence of bacterial growth after 48 h of growth at 37° C. Table 3 represents the results obtained indicating the marked activity of the film since no bacterial growth occurs for 1:4 dilution (second sequential dilution) of the film dispersion in 3 mL of water and VFS. […] The test was performed after incubation of the wells containing the tissue with maintenance medium (commercial), at 37° C. with 5% CO2 atmosphere, in accordance with the recommendations of the supplier. After the incubation period, 17 mg of film were placed over the tissue in each well and added of […] of PBS to allow for dispersion. After the 12 h incubation period, cellular viability was assessed by the MTT test (n=2 wells) and histological analysis was performed. […] Since this formulations was developed to treat an infection, being toxic to bacteria, it wouldn't be expected to totally innocuous for the human tissue. Biocompatibility of chitosan with human tissue has been described and the lactic acid used in this formulation was selected due to the natural occurrence in the vagina. On the other hand, the fact that this formulation is intended for short term treatments, in an altered vaginal environment due to the presence of pathogens, can influence the final effect of the formulation in the tissue of the host.

[2] = system: G. vaginalis G71; test: as above; type: cell-based, Gardnerella vaginalis; design: key: −: absence of bacterial growth; +: presence; details: lactic acid used for the preparation of formulations (control)
Protocol: as §1

Measured: bacterial growth

CC(O)C(=O)O (stereo not shown) [Lactic acid, lactic acid]
−: [1]; dilution 1:2 | [1]; dilution 1:4 | [2]; dilution 1:2 | [2]; dilution 1:4
